Data on six molecules can be found in US5114919A, “Adjuncts in cancer chemotherapy” (Merck & Co., Inc., priority 1991, dated 1992).

The test system of assay [1] is KB-3 drug-sensitive cell line. Briefly: [3H]vinblastine accumulation assay in KB-3 drug-sensitive cells. Format: cell-based, human. Conditions: 37° C., serum-free DMEM; for Accumulation of [3H]vinblastine, KB-3: Table 1, compound 20 μM, 30 minutes; for Accumulation of [3H]vinblastine, KB-3, drug preincubated (60 min): Table 2, drug preincubated 60 min, compound 20 μM. An excerpt:
(§1) Radiolabelled compounds may also be utilized to determine the accumulation of antitumor chemotherapeutic agents in drug sensitive cells and in multidrug resistant cells. For example, the accumulation of [^3 H]vinblastine by drug sensitive cell lines and drug resistant cell lines in the presence or absence of a test compound may be determined. The relative accumulation of the radiolabelled chemotherapeutic agent is indicative of the ability of a compound to reverse multidrug resistance.
(§2) Drug Accumulation: Measurement of the accumulation of [^3 H] vinblastine in a KB-3 drug-sensitive cell line and a KB-V-1 drug-resistantcell line was performed at 37° C. in serum-free medium (DMEM). Cell monolayers were grown in 24 well dishes. [^3 H] vinblastine and different compounds (20 μM) were added to cells incubated for 30 minutes, monolayers were washed later, and drug accumulation per mg protein was assayed.

For assay [2], the system named is KB-V-1 drug-resistant cell line. Put plainly: [3H]vinblastine accumulation assay in KB-V-1 drug-resistant cells. The assay is classed as cell-based, human. As to conditions: for Accumulation of [3H]vinblastine, KB-V-1, drug preincubated (60 min): Table 2.
From the text: as §1, §2

Where [3] appears, read: compound 20 μM, 37° C., serum-free DMEM, drug-resistant cells.
Where [4] appears, read: Table 1, compound 20 μM, 30 minutes, 37° C., serum-free DMEM, drug-resistant cells.

The structures appear in SMILES notation.

For `COc1cc(C(=O)NCc2ccc3c(c2)C(=C2CCN(C)CC2)c2ccccc2C=C3)cc(OC)c1OC` [3,4,5-Trimethoxy-N-((5-(1-methyl-4-piperidinylidene)-5H-dibenzo[a,d]cyclohepten-3-yl)methyl)benzamide], in assay [1], the “Accumulation of [3H]vinblastine, KB-3” value was found to be 8.15 ± 0.44 pmole/mg protein and the “Accumulation of [3H]vinblastine, KB-3, drug preincubated (60 min)” value worked out at 3.67 ± 0.32 pmole/mg protein. In addition, the “Accumulation of [3H]vinblastine, KB-V-1” value in assay [2] (20 µM) is given as 3.31 ± 0.25 pmole/mg protein. For the same molecule, in assay [2] (setting [3]), the “Accumulation of [3H]vinblastine, KB-V-1, drug preincubated (60 min)” value worked out at 3.57 ± 0.16 pmole/mg protein.
Regarding `COc1cc(N)c(Cl)cc1C(=O)NCc1ccc2c(c1)C(=C1CCN(C)CC1)c1ccccc1C=C2` [4-Amino-5-chloro-2-methoxy-N-((5-(1-methyl-4-piperidinylidene)-5H-dibenzo[a,d]cyclohepten-3-yl)methyl)benzamide], the “Accumulation of [3H]vinblastine, KB-3” value in assay [1] worked out at 3.47 ± 0.15 pmole/mg protein. In assay [2] (setting [4]), the “Accumulation of [3H]vinblastine, KB-V-1” value is listed as 3.47 ± 0.26 pmole/mg protein.
In the same order, the values of `Ic1ccc2c(c1)C(=C1CCN(CC3CC3)CC1)c1ccccc1C=C2` [(+)-1-cyclopropylmethyl-4-(3-iodo-5H-dibenzo[a,d]cyclohepten-5-ylidene)piperidine] are 7.35 ± 0.18 pmole/mg protein and 2.91 ± 0.25 pmole/mg protein.
In the case of `FC(F)(F)Sc1ccc2c(c1)C(=C1CCN(CC3CC3)CC1)c1ccccc1C=C2` [(-)-1-cyclopropylmethyl-4-(3-trifluoromethylthio-5H-dibenzo[a,d]cyclohepten-5-ylidene)piperidine], in assay [1], the “Accumulation of [3H]vinblastine, KB-3” value turned out to be 11.65 ± 0.11 pmole/mg protein and the “Accumulation of [3H]vinblastine, KB-3, drug preincubated (60 min)” value is given as 10.16 ± 0.41 pmole/mg protein. In assay [2] (setting [4]), the “Accumulation of [3H]vinblastine, KB-V-1” value turned out to be 0.91 ± 0.04 pmole/mg protein. Besides, the “Accumulation of [3H]vinblastine, KB-V-1, drug preincubated (60 min)” value in assay [2] (setting [3]) is given as 1.85 ± 0.11 pmole/mg protein.
With `CCOC(=O)C1=C(C)NC(C)=C(C(=O)OCC)C1c1ccc2c(c1)C(=C1CCN(C)CC1)c1ccccc1C=C2` [Diethyl 1,4-dihydro-2,6-dimethyl-4-(5-(1-methyl-4-piperidinylidene)-5H-dibenzo[a,d]cyclohepten-3-yl)pyridine dicarboxylate], the “Accumulation of [3H]vinblastine, KB-3” value in assay [1] was 3.32 ± 0.09 pmole/mg protein. The “Accumulation of [3H]vinblastine, KB-V-1” value in assay [2] (setting [4]) stood at 2.13 ± 0.15 pmole/mg protein.
Consider `COc1ccc(CCN(C)CCCC(C#N)(c2ccc(OC)c(OC)c2)C(C)C)cc1OC` (stereo not drawn) [Verapamil, reference compound], for which, in assay [1], the “Accumulation of [3H]vinblastine, KB-3” value amounted to 4.65 ± 0.13 pmole/mg protein and the “Accumulation of [3H]vinblastine, KB-3, drug preincubated (60 min)” value came to 4.71 ± 0.25 pmole/mg protein. Moreover, in assay [2] (setting [4]), the “Accumulation of [3H]vinblastine, KB-V-1” value turned out to be 2.21 ± 0.18 pmole/mg protein. For the same molecule, the “Accumulation of [3H]vinblastine, KB-V-1, drug preincubated (60 min)” value in assay [2] (setting [3]) is 2.36 ± 0.21 pmole/mg protein.
